# According to patent US20090208455A1, “Method for Treating Polyglutamine Expansion Neurodegenerative Diseases” (INSERM (Institut National de la Sante et de la Recherche …, priority 2006, published 2009):
# “Also recorded” adds a separate entry of the source. Peptide text beside a SMILES is read from it. * marks the point of attachment. Cbz = O=C(OCc1ccccc1)*
# What was measured:
# proteasome = test: Proteasome inhibition by MG132 in COS-7 cells, Western blot of ATXN7; format: cell-based
# Protocol: (§1) Cell culture, transfections, MG132, INF and cadmium treatments: COS-7 cells were maintained in DMEM (Invitrogen) supplemented with 5% FBS, and penicillin-streptomycin (100 UI/ml; 100 μg/ml). Cell lines were transfected with Lipofectamine-PLUS reagents (Invitrogen) as prescribed. […] Recombinant human Interferon beta (Hu-IFN-b) is obtained from human fibroblast mRNA expressed in E. Coli. Its molecular weight is approximately 20 kDa. Recombinant human Interferon beta was supplied as a solution at 1×10^6 units/ml in PBS (phosphate buffered saline) containing 0.1% BSA (bovine serum albumin) and 10% glycerol. It was purchased from Sigma-Aldrich. Recombinant human Interferon beta (2000 UI/ml) was added to the culture medium after plating and during transfection. Cadmium chloride (Cadmium chloride hemi pentahydrate, Sigma Aldrich) (from 0.25 μM to 2 μM) was added during transfection. For proteasome inhibition, 5 μM MG132 was applied for 12 h, 25 h post-transfection. Cultures of post-mitotic neurons were prepared from the cortex of embryonic day 16 Wistar rats. Cells were extracted from the embryos and cultured with 1 μM MK801. Glial cell proliferation was stopped by adding 1 μM cytosine arabinoside after 3 h. Primary cultures of cortical neurons were transfected 96 h after plating using Lipofectamine 2000 reagent (Invitrogen) according to the manufacturer's instructions.
# Western blot and filter retardation assay: Cells were harvested in PBS, pelleted and lysed 30 min on ice in lysis buffer containing 50 mM Tris pH 8.8, 100 mM NaCl, 5 mM MgCl2, 0.5% NP40, 1 mM EDTA and 250 UI/ml benzonase (Merck) supplemented with a cocktail of protease inhibitors (Complete and Pefabloc, Roche). Total extracts were centrifuged at 13000 rpm for 10 min at 4° C. to separate soluble proteins from aggregates and membranes. Supernatants (30 μg protein) were analyzed by Western blot. Pellets were washed with PBS and further incubated 30 min on ice in a pellet buffer containing 20 mM Tris pH 8.0, 15 mM MgCl2 and 250 UI/ml benzonase. Protein concentrations (supernatant and pellet) were determined by Bio-Rad assay. […]
# mutant ATXN7 aggregates = test: Filter retardation assay of SDS-insoluble material in COS-7 cells; format: cell-based; conditions: 0.25 to 2 μM cadmium, filter assay on pellet fraction
# Protocol: as §1, with “For proteasome inhibition, 5 μM MG132 was applied for 12 h, 25 h post-transfection. Cultures of post-mitotic neurons were prepared from the cortex of embryonic day 16 Wistar rats. Cells were extracted from the embryos and cultured with 1 μM MK801. Glial cell proliferation was stopped by adding 1 μM cytosine arabinoside after 3 h. Primary cultures of cortical neurons were transfected 96 h after plating using Lipofectamine 2000 reagent (Invitrogen) according to the manufacturer's instructions.” left out
# Western blot and filter retardation assay: Cells were harvested in PBS, pelleted and lysed 30 min on ice in lysis buffer containing 50 mM Tris pH 8.8, 100 mM NaCl, 5 mM MgCl2, 0.5% NP40, 1 mM EDTA and 250 UI/ml benzonase (Merck) supplemented with a cocktail of protease inhibitors (Complete and Pefabloc, Roche). […] Supernatants (30 μg protein) were analyzed by Western blot. […] Protein concentrations (supernatant and pellet) were determined by Bio-Rad assay. […]
# endogenous PML bodies = test: Immunofluorescence of endogenous PML bodies in cadmium-treated cells expressing FL-74Q; format: cell-based; conditions: 2 μM cadmium
# Protocol: Cell culture, transfections, MG132, INF and cadmium treatments: COS-7 cells were maintained in DMEM (Invitrogen) supplemented with 5% FBS, and penicillin-streptomycin (100 UI/ml; 100 μg/ml). Cell lines were transfected with Lipofectamine-PLUS reagents (Invitrogen) as prescribed. Unless otherwise specified, cells were harvested or analyzed by immunofluorescence 40-45 h post-transfection. β-INF. Recombinant human Interferon beta (Hu-IFN-b) is obtained from human fibroblast mRNA expressed in E. Coli. Its molecular weight is approximately 20 kDa. Recombinant human Interferon beta was supplied as a solution at 1×10^6 units/ml in PBS (phosphate buffered saline) containing 0.1% BSA (bovine serum albumin) and 10% glycerol. It was purchased from Sigma-Aldrich. Recombinant human Interferon beta (2000 UI/ml) was added to the culture medium after plating and during transfection. Cadmium chloride (Cadmium chloride hemi pentahydrate, Sigma Aldrich) (from 0.25 μM to 2 μM) was added during transfection. For proteasome inhibition, 5 μM MG132 was applied for 12 h, 25 h post-transfection. Cultures of post-mitotic neurons were prepared from the cortex of embryonic day 16 Wistar rats. Cells were extracted from the embryos and cultured with 1 μM MK801. Glial cell proliferation was stopped by adding 1 μM cytosine arabinoside after 3 h. […]
# [1] = system: wild type mice (C57 black6); test: Toxicity of beta-IFN injection protocol in wild type mice; format: in vivo; conditions: 10.000 Units per mouse, 3 injections per week intraperitoneally, 12 weeks, versus saline
# Text: (§2) Protocol: 3 injections (intraperitoneally) per week, each of 10.000 Units murine beta IFN per mouse (from Sigma). Starting at 5 weeks of age, and during 10 weeks or more, until the animals die.
# The inventors first tested the toxicity of such a treatment, as no publication described a treatment of young animals with IFN. In adult mice affected by multiple sclerosis and receiving injections of beta-IFN, the doses were 10.000 Units per mouse, over 14 weeks. The inventors chose to use the same doses and tested toxicity of the protocol in wild type mice of the same strain (C57 black6) than the KI mice, during 12 weeks. […] The inventors concluded that the dose used was not toxic, and decided to use 10.000 Units, 3 times a week, in the SCAT mouse model.
# SCA7 KI mice [2] = test: Beam walking test in SCA7 knock-in mice; format: in vivo; conditions: 10.000 Units i.p. 3 times a week from 5 weeks of age; effect from 12 weeks of age, p inf to 0.005
# Protocol: This test was performed each week, with 3 sessions per animal (maximal time 1 min.). The number of errors made on the wooden beam by each mouse, and the traveled total distance were noted. A mean of the 3 assays was calculated.
# (§3) The inventors use the Spinocerebellar ataxia 7 (SCA7) knock-in mouse model developed in Huda Zhoghbi's lab (Yoo et al, 2003). This mouse model SCAT 266Q/5Q reproduces features of an infantile SCAT disease. The phenotype begins at 5 weeks of age with weight loss and then visual impairment. At about 8 weeks their locomotor functions are affected, and by 13-14 weeks of age the ataxic phenotype is severe with tremor, gait ataxia, muscular mass loss, kyphosis. The mice die between 14 and 19 weeks of age. In this severely affected mice model the inventors undertook to test a treatment with murine beta-IFN (Sigma).
# Protocol: 3 injections (intraperitoneally) per week, each of 10.000 Units murine beta IFN per mouse (from Sigma). Starting at 5 weeks of age, and during 10 weeks or more, until the animals die. […]
# The mouse is placed at the end of the beam, at segment number 1 and the task is to walk towards the box placed at the other end. […] During the task, the inventors carefully monitored the numbers of errors done with the paws on the beam (front or rear paws). The ratio number of errors/distance traveled (EID) is calculated for each animal.
# SCA7 KI mice [3] = test: Locotronic test in SCA7 knock-in mice; format: in vivo; conditions: treated KI versus untreated KI
# Protocol: Mice have been subjected to crossing the Locotronic apparatus, each week, 3 sessions with 15 min pause between sessions. FIG. 7A indicates the time in seconds for crossing the Locotronic and FIG. 7B indicates the numbers of errors (front paws, rear paws) made by the mice during the task. A mean value was calculated for the 3 sessions, for each group of animals.
# as §3, with “(Sigma). […]” for “(Sigma).”
# The Locotronic is designed to evaluated fine motor coordination in mice crossing the apparatus. […] On the side of the apparatus there are infra red sensors which measure errors made with front paws and rear paws (differentially scored). […] All the errors detected by the sensors are saved in a file as well as the time needed for crossing. […]
# SCA7 KI mice [4] = test: Life time of SCA7 knock-in mice; format: in vivo
# Text: as §3, §2
# [5] = 5 μM MG132, COS-7 cells, Western blot
compound,measurement,setting,value
CC(C)C[C@@H](C=O)NC(=O)[C@H](CC(C)C)NC(=O)[C@H](CC(C)C)NC(=O)OCc1ccccc1 [MG132] (Cbz-Leu-Leu-Leu-aldehyde),amount of mutant ATXN7 FL-74Q coexpressed with PML IV,proteasome; [5],significantly increases; also recorded: increased
same,amount of mutant ATXN7 FL-74Q expressed alone (absence of PML IV),proteasome; [5],significantly increases; also recorded: increased
same,PML-dependent degradation of ATXN7 induced by β-INF,"proteasome; MG132 with β-INF treatment, COS-7 cells",inhibited
"O.O.O.O.O.[Cd+2].[Cd+2].[Cl-].[Cl-].[Cl-].[Cl-] [cadmium, Cadmium chloride hemi pentahydrate]",aggregation of mutant ATXN7,mutant ATXN7 aggregates,dose-dependent
same,endogenous PML bodies,endogenous PML bodies,totally disrupted
beta-IFN: murine beta-IFN (Sigma) injected intraperitoneally in mice,adverse effects,[1],did not observe adverse effects
same,locomotor coordination (ratio number of errors/traveled distance),SCA7 KI mice [2],improves the locomotor coordination
same,time for crossing the Locotronic,SCA7 KI mice [3]; 10.000 Units i.p. 3 times a week from 5 weeks of age,slower than the beta-interferon treated KI
same,number of errors in the Locotronic,"SCA7 KI mice [3]; 10.000 Units i.p. 3 times a week, at 14 weeks of age",tendency for the treated KI to make less errors
same,mean life time,"SCA7 KI mice [4]; 10.000 Units i.p. 3 times a week from 5 weeks of age, untreated SCA7 KI 15.1 weeks",16.25 weeks
same,extension of the life time,SCA7 KI mice [4]; treated versus untreated SCA7 KI mice,7.5%
